{"source": "patent US8445207B2", "about": "“Genes based on thalidomide, valproic acid and methotrexate treatment for screening of drug inducing teratogenicity and screening method using thereof” (priority 2009, dated 2013)", "tested_on": "JEG-3 (human placental choriocarcinoma cell line)", "test": "Oligo microarray gene expression in drug-treated JEG-3 (Cy5 treated / Cy3 control)", "assay_type": "cell-based", "method": "Thalidomide, valproic acid, and methotrexate were treated to human placental choriocarcinoma cell line at the concentrations determined above (Inhibition concentration: the concentration that can kill approximately 30% of the total cells, that is the concentration of 70% viability, IC30). mRNA was extracted from the drug treated cell line, followed by synthesis of cDNA which was labeled with Cy5. The non-treated control was labeled with Cy3. The fluorescence labeled cDNA was hybridized with 41K (thalidomide), 44K (valproic acid, methotrexate) human whole genome oligomicroarray chips (Agilent, USA), followed by fluorescent image scanning to analyze gene expression patterns (see FIG. 4). Volcano Plot of each substance was also attached. Y axis indicates probability (generally converted by −log 10). X axis indicates differential expression, which is presented by log-ratio.\nTotal RNA was separated from the treated cell by using trizol reagent (Invitrogen Life Technologies, USA) according to the manufacture's instructions, followed by purification using RNeasy mini kit (Qiagen, USA). Genomic DNA was eliminated during RNA purification using RNase-free DNase set (Qiagen, USA).\n30 μg of the total RNA obtained above and 2 μg (1 μg/μl) of oligo (dT) primer were mixed, followed by reaction at 65° C. for 10 minutes. Annealing was performed in ice right after the reaction. Reagents were prepared as shown in Table 1 for reverse transcription of the annealed RNA.\nThe total RNA separated from the control group JEG-3 cells was labeled with Cy3-dUTP (green) and the total RNA separated from the experiment group JEG-3 cells treated with thalidomide, valproic acid and methotrexate was labeled with Cy5-dUTP (red). At this time, the two samples were mixed and purified by Microcon YM-30 column (Millipore, USA).\nHybridization and washing were performed by the manufacturer's (GenoCheck, Korea) instructions. Particularly, hybridization was performed in a 62° C. oven for 12 hours. As a DNA microarray chip, 44 k whole human genome oligo microarray (Agilent, USA) was used. After washing (2 minutes with 2×SSC/0.1% SDS, three minutes with 1×SSC, 2 minutes with 0.2×SSC), the slide was dried by centrifugation at 800 rpm for 3 minutes.\nHybridization image on the slide was scanned with Genepix 4000B (Axon Instruments, USA). Fluorescence image of the chip on which non-hybridized genes had been washed out was obtained by using laser fluorescence scanner. Green fluorescence image indicates the activity of gene specifically expressed in the control group and red fluorescence image indicates the activity of gene specifically expressed in the experimental group. […] Scanned image was analyzed by using GenePix 4.1 software (Axon Instruments, USA) to calculate gene expression rate.", "key": {"[1]": {"conditions": "out of 21797 (thalidomide), 21921 (valproic acid), 24006 (methotrexate) genes"}, "[2]": {"conditions": "treated at IC30, up-regulated gene, (k) common gene which has no function"}}, "data": [{"smiles": "CN(Cc1cnc2nc(N)nc(N)c2n1)c1ccc(C(=O)N[C@@H](CCC(=O)O)C(=O)O)cc1", "note": "[MTX, methotrexate]", "values": [{"measurement": "Ratio of intermediate value, ATM", "setting": "Genbank NM_000051, drug at IC30", "value": 0.48}, {"measurement": "Ratio of intermediate value, KAL1", "setting": "Genbank NM_000216, drug at IC30", "value": 0.43}, {"measurement": "Ratio of intermediate value, PMP22", "setting": "Genbank NM_000304, drug at IC30", "value": 0.43}, {"measurement": "Ratio of intermediate value, ATR", "setting": "Genbank NM_001184, drug at IC30", "value": 0.41}, {"measurement": "Ratio of intermediate value, PARP1", "setting": "Genbank NM_001618, drug at IC30", "value": 0.60}, {"measurement": "Ratio of intermediate value, AUH", "setting": "Genbank NM_001698, drug at IC30", "value": 0.39}, {"measurement": "Ratio of intermediate value, CDO1", "setting": "Genbank NM_001801, drug at IC30", "value": 0.45}, {"measurement": "Ratio of intermediate value, MGMT", "setting": "Genbank NM_002412, drug at IC30", "value": 0.48}, {"measurement": "Ratio of intermediate value, NTHL1", "setting": "Genbank NM_002528, drug at IC30", "value": 0.42}, {"measurement": "Ratio of intermediate value, UNG", "setting": "Genbank NM_003362, drug at IC30", "value": 0.41}, {"measurement": "Ratio of intermediate value, EEF1E1", "setting": "Genbank NM_004280, drug at IC30", "value": 0.46}, {"measurement": "Ratio of intermediate value, FEZ1", "setting": "Genbank NM_005103, drug at IC30", "value": 0.43}, {"measurement": "Ratio of intermediate value, BCAT1", "setting": "Genbank NM_005504, drug at IC30", "value": 0.12}, {"measurement": "Ratio of intermediate value, BCKDK", "setting": "Genbank NM_005881, drug at IC30", "value": 0.48}, {"measurement": "Ratio of intermediate value, POLD2", "setting": "Genbank NM_006230, drug at IC30", "value": 0.29}, {"measurement": "Ratio of intermediate value, FARS2", "setting": "Genbank NM_006567, drug at IC30", "value": 0.46}, {"measurement": "Ratio of intermediate value, POLG2", "setting": "Genbank NM_007215, drug at IC30", "value": 0.45}, {"measurement": "Ratio of intermediate value, ABL1", "setting": "Genbank NM_007313, drug at IC30", "value": 0.49}, {"measurement": "Ratio of intermediate value, LIG3", "setting": "Genbank NM_013975, drug at IC30", "value": 0.49}, {"measurement": "Ratio of intermediate value, CGI-04", "setting": "Genbank NM_015936, drug at IC30", "value": 0.47}, {"measurement": "Ratio of intermediate value, MAPT", "setting": "Genbank NM_016835, drug at IC30", "value": 0.38}, {"measurement": "Ratio of intermediate value, FLJ10514", "setting": "Genbank NM_018122, drug at IC30", "value": 0.38}, {"measurement": "Ratio of intermediate value, LGP1", "setting": "Genbank NM_032484, drug at IC30", "value": 0.49}, {"measurement": "Ratio of intermediate value, PSAT1", "setting": "Genbank NM_058179, drug at IC30", "value": 0.31}, {"measurement": "Ratio of intermediate value, HARS2", "setting": "Genbank NM_080820, drug at IC30", "value": 0.26}, {"measurement": "Ratio of intermediate value, DBN1", "setting": "Genbank NM_080881, drug at IC30", "value": 0.44}, {"measurement": "Ratio of intermediate value, ASNS", "setting": "Genbank NM_133436, drug at IC30", "value": 0.33}, {"measurement": "Ratio of intermediate value, ROBO1", "setting": "Genbank NM_133631, drug at IC30", "value": 0.39}, {"measurement": "Ratio of intermediate value, TARSL2", "setting": "Genbank NM_152334, drug at IC30", "value": 0.36}, {"measurement": "Ratio of intermediate value, CNTN4", "setting": "Genbank NM_175607, drug at IC30", "value": 0.31}, {"measurement": "Ratio of intermediate value, ERCC8", "setting": "Genbank NM_001007233, drug at IC30", "value": 0.41}, {"measurement": "Ratio of intermediate value, RAD50", "setting": "Genbank U63139, drug at IC30", "value": 0.36}, {"measurement": "Ratio of intermediate value, VARS2", "setting": "Genbank X59303, drug at IC30", "value": 0.33}, {"measurement": "Ratio of intermediate value, SR140", "setting": "Genbank XM_031553, drug at IC30", "value": 0.66}, {"measurement": "Ratio of intermediate value, LOC389173", "setting": "Genbank XM_371677, drug at IC30", "value": 0.27}, {"measurement": "genes down-regulated (ratio of intermediate value less than 0.666)", "setting": "JEG-3, drug at IC30, 48 hours", "value": 6.28, "unit": "%"}, {"measurement": "genes up-regulated (ratio of intermediate value more than 1.5)", "setting": "JEG-3, drug at IC30, 48 hours", "value": 9.5, "unit": "%"}, {"measurement": "number of genes down-regulated", "setting": "[1]", "value": 1508}, {"measurement": "number of genes up-regulated", "setting": "[1]", "value": 2149}, {"measurement": "Ratio of intermediate value, gene ATP10B (AB018258, ATPase, Class V, type 10B)", "setting": "[2]", "value": 4.95}, {"measurement": "Ratio of intermediate value, gene BQ186674 (cDNA clone UI-E-EJ1-ajr-f-10-0-UI, Hypothetical gene supported by AF086204)", "setting": "[2]", "value": 3.79}, {"measurement": "Ratio of intermediate value, gene BX111592 (Transcribed locus, moderately similar to XP_066443.6 PREDICTED: similar to paraneoplastic antigen like 6A)", "setting": "[2]", "value": 9.86}, {"measurement": "Ratio of intermediate value, gene CGA (NM_000735, Glycoprotein hormones, alpha polypeptide)", "setting": "[2]", "value": 8.07}, {"measurement": "Ratio of intermediate value, gene COBLL1 (BX649112, COBL-like 1)", "setting": "[2]", "value": 4.89}, {"measurement": "Ratio of intermediate value, gene CYP19A1 (AK023571, Cytochrome P450, family 19, subfamily A, polypeptide 1)", "setting": "[2]", "value": 2.72}, {"measurement": "Ratio of intermediate value, gene FLJ11017 (AK001879, Hypothetical protein FLJ11017)", "setting": "[2]", "value": 4.69}, {"measurement": "Ratio of intermediate value, gene GLCCI1 (AK126731, Glucocorticoid induced transcript 1)", "setting": "[2]", "value": 2.84}, {"measurement": "Ratio of intermediate value, gene KIAA0310 (AB002308, KIAA0310)", "setting": "[2]", "value": 2.29}, {"measurement": "Ratio of intermediate value, gene MGC27016 (AK125877, Hypothetical protein MGC27016)", "setting": "[2]", "value": 1.52}, {"measurement": "Ratio of intermediate value, gene NCOA3 (NM_181659, Nuclear receptor coactivator 3)", "setting": "[2]", "value": 2.12}, {"measurement": "Ratio of intermediate value, gene RGS2 (BC042755, Regulator of G-protein signalling 2, 24 kDa)", "setting": "[2]", "value": 9.24}, {"measurement": "Ratio of intermediate value, gene SIAT7A (BC063830, ST6 (alpha-N-acetyl-neuraminyl-2,3-beta-galactosyl-1,3)-N-acetylgalactosaminide alpha-2,6-sialyltransferase 1)", "setting": "[2]", "value": 15.01}, {"measurement": "Ratio of intermediate value, gene SIAT8D (NM_005668, ST8 alpha-N-acetyl-neuraminide alpha-2,8-sialyltransferase 4)", "setting": "[2]", "value": 1.82}, {"measurement": "Ratio of intermediate value, gene SLC7A8 (Y18483, Solute carrier family 7 (cationic amino acid transporter, y+ system), member 8)", "setting": "[2]", "value": 3.76}, {"measurement": "Ratio of intermediate value, gene SLC40A1 (AK023574, Solute carrier family 40 (iron-regulated transporter), member 1)", "setting": "[2]", "value": 3.06}, {"measurement": "Ratio of intermediate value, gene TFCP2L4 (BC036890, Grainyhead-like 3 (Drosophila))", "setting": "[2]", "value": 4.11}, {"measurement": "Ratio of intermediate value, gene TTF2 (AB209845, Transcription termination factor, RNA polymerase II)", "setting": "[2]", "value": 1.94}, {"measurement": "Ratio of intermediate value, gene TUBB3 (AK122757, Tubulin, beta 3)", "setting": "[2]", "value": 7.85}, {"measurement": "Ratio of intermediate value, gene TncRNA (AF001893, Trophoblast-derived noncoding RNA)", "setting": "[2]", "value": 2.11}]}]}
